melting point | Compound
192 to 196 °C | O=C1NC[C@H](c2ccc(C(F)(F)F)cn2)[C@H]1C(=O)Nc1cccc(F)c1F [Compound 1104]
107.5 to 115.4 °C | CC(O)c1ccccc1NC(=O)C1C(=O)N(C)CC1c1cccc(C(F)(F)F)c1 (stereo not shown) [Compound 1147]
132 to 136 °C | C=C(C)c1ccc([C@H]2CN(C)C(=O)[C@@H]2C(=O)Nc2ccc(F)c(F)c2F)cc1 [Compound 1148]
97 to 101 °C | Cc1cc([C@H]2CN(C)C(=O)[C@@H]2C(=O)Nc2cccc(F)c2F)no1 [Compound 1237]

— patent publication US12077503B2, “Substituted cyclic amides and their use as herbicides” (FMC CORPORATION, priority 2015, dated 2024)
